Laboratory results as given in PubChem BioAssay (NCI).
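Step 1: Grow cells in 96-well plates. Step 2: Expose to compound for 48 hours at 5 concentrations. Step 3: Interpolate endpoints linearly; if unreached, use highest concentration. Abbreviation: GI50, concentration required for 50% inhibition of growth. TGI: total growth inhibition.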

Columns and labels:
Assay in all cases: NCI-60 cell line screen, 48 h
SN12C renal = test system: SN12C renal
T-47D breast = test system: T-47D breast
EKVX NSCLC = test system: EKVX NSCLC
SF-295 CNS = test system: SF-295 CNS
U251 CNS = test system: U251 CNS
NCI-H23 lung = test system: NCI-H23 lung
HOP-92 NSCLC = test system: HOP-92 NSCLC
SF-539 CNS = test system: SF-539 CNS
UACC-257 melanoma = test system: UACC-257 melanoma
LOX IMVI melanoma = test system: LOX IMVI melanoma
UO-31 renal = test system: UO-31 renal
HCT-15 colon = test system: HCT-15 colon
MCF7 breast = test system: MCF7 breast
UACC-62 melanoma = test system: UACC-62 melanoma
SK-MEL-5 melanoma = test system: SK-MEL-5 melanoma
OVCAR-5 ovarian = test system: OVCAR-5 ovarian
OVCAR-4 ovarian = test system: OVCAR-4 ovarian
TK-10 renal = test system: TK-10 renal
A549 NSCLC = test system: A549 NSCLC
SK-MEL-28 melanoma = test system: SK-MEL-28 melanoma
NCI/ADR-RES ovarian = test system: NCI/ADR-RES ovarian
MOLT-4 leukemia = test system: MOLT-4 leukemia
NCI-H522 lung = test system: NCI-H522 lung
MDA-MB-231 breast = test system: MDA-MB-231 breast
786-0 renal = test system: 786-0 renal
SNB-19 CNS = test system: SNB-19 CNS
SW-620 colon = test system: SW-620 colon
BT-549 breast = test system: BT-549 breast
SK-OV-3 ovarian = test system: SK-OV-3 ovarian
OVCAR-8 ovarian = test system: OVCAR-8 ovarian
ACHN renal = test system: ACHN renal
SNB-75 CNS = test system: SNB-75 CNS
HCT-116 colon = test system: HCT-116 colon
HT29 colon = test system: HT29 colon
HOP-62 NSCLC = test system: HOP-62 NSCLC
M14 melanoma = test system: M14 melanoma
MDA-MB-435 = test system: MDA-MB-435
HL-60(TB) leukemia = test system: HL-60(TB) leukemia
HS 578T breast = test system: HS 578T breast
NCI-H226 lung = test system: NCI-H226 lung
HCC-2998 colon = test system: HCC-2998 colon
PC-3 prostate = test system: PC-3 prostate
SK-MEL-2 melanoma = test system: SK-MEL-2 melanoma
OVCAR-3 ovarian = test system: OVCAR-3 ovarian
RXF 393 renal = test system: RXF 393 renal
CCRF-CEM leukemia = test system: CCRF-CEM leukemia
KM12 colon = test system: KM12 colon
DU-145 prostate = test system: DU-145 prostate
MALME-3M melanoma = test system: MALME-3M melanoma
CAKI-1 renal = test system: CAKI-1 renal
IGROV1 ovarian = test system: IGROV1 ovarian
A498 renal = test system: A498 renal
NCI-H460 lung = test system: NCI-H460 lung
K-562 leukemia = test system: K-562 leukemia
RPMI-8226 leukemia = test system: RPMI-8226 leukemia
COLO 205 colon = test system: COLO 205 colon
SF-268 CNS = test system: SF-268 CNS

Question: With `Cc1c2ccccc2c(/C=N/NC(=O)CSCC(=O)N/N=C/c2c3ccccc3c(C)c3ccccc23)c2ccccc12` as the molecule, how does the TGI (SN12C renal) read?
Answer: > 100 µM

Question: What about the TGI (T-47D breast) of the same molecule?
Answer: > 82.4 µM

Question: What about the TGI (EKVX NSCLC) of the same molecule?
Answer: > 100 µM

Question: And the TGI (SF-295 CNS)?
Answer: 49.9 µM

Question: What about the TGI (U251 CNS) of the same molecule?
Answer: > 57.6 µM

Question: And the TGI (NCI-H23 lung)?
Answer: 50.7 µM

Question: What about the TGI (HOP-92 NSCLC) of the same molecule?
Answer: 38.6 µM

Question: What about the TGI (SF-539 CNS) of the same molecule?
Answer: > 56.9 µM

Question: And the TGI (UACC-257 melanoma)?
Answer: > 100 µM

Question: What about the TGI (LOX IMVI melanoma) of the same molecule?
Answer: > 100 µM

Question: And the TGI (UO-31 renal)?
Answer: > 100 µM

Question: What about the TGI (HCT-15 colon) of the same molecule?
Answer: > 100 µM

Question: And the TGI (MCF7 breast)?
Answer: > 78.7 µM

Question: What about the TGI (UACC-62 melanoma) of the same molecule?
Answer: > 100 µM

Question: And the TGI (SK-MEL-5 melanoma)?
Answer: > 100 µM

Question: And the TGI (OVCAR-5 ovarian)?
Answer: > 100 µM

Question: What about the TGI (OVCAR-4 ovarian) of the same molecule?
Answer: > 100 µM

Question: And the TGI (TK-10 renal)?
Answer: > 95.4 µM

Question: What about the TGI (A549 NSCLC) of the same molecule?
Answer: > 100 µM

Question: What about the TGI (SK-MEL-28 melanoma) of the same molecule?
Answer: > 100 µM

Question: And the TGI (NCI/ADR-RES ovarian)?
Answer: > 100 µM

Question: And the TGI (MOLT-4 leukemia)?
Answer: > 87.8 µM

Question: What about the GI50 (NCI-H522 lung) of the same molecule?
Answer: > 100 µM

Question: What about the TGI (NCI-H522 lung) of the same molecule?
Answer: > 100 µM

Question: What about the TGI (MDA-MB-231 breast) of the same molecule?
Answer: > 75 µM

Question: And the TGI (786-0 renal)?
Answer: > 52.8 µM

Question: What about the TGI (SNB-19 CNS) of the same molecule?
Answer: > 100 µM

Question: What about the TGI (SW-620 colon) of the same molecule?
Answer: > 100 µM

Question: And the TGI (BT-549 breast)?
Answer: > 90.1 µM

Question: What about the TGI (SK-OV-3 ovarian) of the same molecule?
Answer: > 100 µM

Question: And the TGI (OVCAR-8 ovarian)?
Answer: > 86.4 µM

Question: What about the TGI (ACHN renal) of the same molecule?
Answer: > 89 µM

Question: And the TGI (SNB-75 CNS)?
Answer: > 73.3 µM

Question: What about the TGI (HCT-116 colon) of the same molecule?
Answer: > 100 µM

Question: What about the TGI (HT29 colon) of the same molecule?
Answer: > 100 µM

Question: What about the TGI (HOP-62 NSCLC) of the same molecule?
Answer: 36.1 µM

Question: What about the TGI (M14 melanoma) of the same molecule?
Answer: > 100 µM

Question: What about the TGI (MDA-MB-435) of the same molecule?
Answer: > 100 µM

Question: And the TGI (HL-60(TB) leukemia)?
Answer: > 100 µM

Question: And the TGI (HS 578T breast)?
Answer: > 100 µM

Question: What about the TGI (NCI-H226 lung) of the same molecule?
Answer: > 61.1 µM

Question: And the TGI (HCC-2998 colon)?
Answer: 65.1 µM

Question: And the TGI (PC-3 prostate)?
Answer: > 67.5 µM

Question: And the TGI (SK-MEL-2 melanoma)?
Answer: > 100 µM

Question: And the TGI (OVCAR-3 ovarian)?
Answer: > 80.9 µM

Question: What about the TGI (RXF 393 renal) of the same molecule?
Answer: 54.9 µM

Question: And the TGI (CCRF-CEM leukemia)?
Answer: > 72.4 µM

Question: And the TGI (KM12 colon)?
Answer: > 100 µM

Question: And the TGI (DU-145 prostate)?
Answer: > 100 µM

Question: And the TGI (MALME-3M melanoma)?
Answer: 97.3 µM

Question: What about the TGI (CAKI-1 renal) of the same molecule?
Answer: > 100 µM

Question: And the TGI (IGROV1 ovarian)?
Answer: > 100 µM

Question: And the TGI (A498 renal)?
Answer: > 93.3 µM

Question: And the TGI (NCI-H460 lung)?
Answer: > 100 µM

Question: What about the TGI (K-562 leukemia) of the same molecule?
Answer: > 100 µM

Question: And the TGI (RPMI-8226 leukemia)?
Answer: 51.9 µM

Question: And the GI50 (COLO 205 colon)?
Answer: > 100 µM

Question: What about the TGI (COLO 205 colon) of the same molecule?
Answer: > 100 µM

Question: And the TGI (SF-268 CNS)?
Answer: > 75.3 µM
